Target: T1, ClpP (Staphylococcus aureus, UniProt Q2G036)
T1 construct: pET28a-clpP, purified from E. coli BL21(DE3)
Experiment: biochemical
Details: read-out: Relative inhibition rate (%)
Protocol: This property was exploited to screen the available laboratory library of small molecules for ClpP inhibitors. First, 10 μM ClpP and 64 μg/mL of the small molecule compound were added to a black opaque 96-well plate containing 100 μL of ClpP buffer (100 mM HEPES,100 mM NaCl) and incubated for 1 h at room temperature. Afterward, 100 μM Suc-LeuTyr-AMC (Cat number S1153, Sigma-Aldrich, St. Louis, MO, USA) was added to 96-well plates and incubated for 30 min at 32°C. Finally, the fluorescence values were detected by Infinite M200 (360 nm excitation/465 nm emission). […] Since the fluorescent substrate Suc-LY-AMC can be used to detect the activity of ClpP protein, we screened a library of natural products available in our laboratory.
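Note: ClpP peptidase activity measured as fluorescence (ex 360 nm, em 465 nm) from cleavage of Suc-LY-AMC substrate at 100 µM, 30 min at 32°C.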

T1 sequence (Q2G036 whole entry): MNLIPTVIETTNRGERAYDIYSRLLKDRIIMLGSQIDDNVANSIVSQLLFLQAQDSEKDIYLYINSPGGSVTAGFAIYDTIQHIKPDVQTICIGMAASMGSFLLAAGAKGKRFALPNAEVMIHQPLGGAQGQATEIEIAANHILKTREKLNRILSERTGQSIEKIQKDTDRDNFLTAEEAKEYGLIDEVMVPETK

| SMILES | inhibition at 64 µg/mL [%] |
| --- | --- |
| O=C1O[C@H]2[C@@H]3OC(=O)c4cc(O)c(O)c(O)c4-c4c(O)c(O)c5oc(=O)c6c(c(O)c(O)c7oc(=O)c4c5c76)-c4c(cc(O)c(O)c4O)C(=O)OC[C@H]3OC(O)[C@@H]2OC(=O)c2cc(O)c(O)c(O)c2-c2c1cc(O)c(O)c2O (mixture of isomers) [Punicalagin] | 28.3 ± 3.67 |
| COc1ccc(-c2cc(=O)c3c(O)c(OC)c(OC)cc3o2)cc1O [3',5-Dihydroxy-4',6,7-trimethoxyflavone] | 55.8 ± 2.5 |
| O=c1ccc2cc(O)c(O)cc2o1 [6,7-Dihydroxycoumarin] | 19.6 ± 3.54 |
| CC1=CC(=O)CC(C)(C)[C@@]1(O)/C=C/C(C)=C\C(=O)O [Abscisic acid] | 0.8 ± 3.42 |
| O=C1c2ccccc2C(=O)c2c1ccc(O)c2O [Alizarin] | 56.6 ± 5.28 |
| C=C1CC[C@@H]2[C@](C)(CO)[C@H](O)CC[C@@]2(C)[C@@H]1C/C=C1/C(=O)OC[C@H]1O [Andrographolide] | 15.8 ± 0.72 |
| COc1ccc(-c2cc(=O)c3c(O)cc(OC)cc3o2)cc1 [Apigenin 7,4'-dimethyl ether] | 18.4 ± 1.24 |
| O=c1cc(-c2ccc(O)cc2)oc2cc(O)cc(O)c12 [Apigenin] | 13.6 ± 0.52 |
| C[C@@H]1CC[C@H]2[C@@H](C)C(=O)O[C@@H]3O[C@@]4(C)CC[C@@H]1[C@]32OO4 [Artemisinin] | 4.9 ± 4.21 |
| CC(=O)OCC1=C[C@@H]2OC(=O)C3=CO[C@@H](O[C@@H]4O[C@H](CO)[C@@H](O)[C@H](O)[C@H]4O)[C@H]1[C@@H]32 [Asperuloside] | 17.4 ± 2.31 |
| C[C@@H]1O[C@@H](O[C@H]2C(=O)c3c(O)cc(O)cc3O[C@@H]2c2ccc(O)c(O)c2)[C@H](O)[C@H](O)[C@H]1O [Astilbin] | 9.1 ± 2.73 |
| O=c1c(O[C@@H]2O[C@H](CO)[C@@H](O)[C@H](O)[C@H]2O)c(-c2ccc(O)cc2)oc2cc(O)cc(O)c12 [Astragalin] | 51.3 ± 1.73 |
| O=c1c(O[C@@H]2O[C@@H](CO)[C@H](O)[C@H]2O)c(-c2ccc(O)c(O)c2)oc2cc(O)cc(O)c12 [Avicularin] | 46 ± 1.22 |
| CC(=O)O[C@H]1C(=O)[C@@]2(C)[C@H]([C@H](OC(=O)c3ccccc3)[C@]3(O)C[C@H](O)C(C)=C1C3(C)C)[C@]1(OC(C)=O)CO[C@@H]1C[C@@H]2O [Baccatin III] | 7.2 ± 3.26 |
| O=C(O)[C@H]1O[C@@H](Oc2cc3oc(-c4ccccc4)cc(=O)c3c(O)c2O)[C@H](O)[C@@H](O)[C@@H]1O [Baicalin] | 27.3 ± 0.55 |
| O=c1c(O[C@@H]2O[C@H](CO)[C@@H](O)[C@H](O)[C@H]2O[C@@H]2O[C@H](CO)[C@@H](O)[C@H](O)[C@H]2O)c(-c2ccc(O)c(O)c2)oc2cc(O)cc(O)c12 [Baimaside] | 25.1 ± 0.69 |
| COc1ccc(-c2oc3c(CC=C(C)C)c(O)cc(O)c3c(=O)c2O[C@@H]2O[C@@H](C)[C@H](O)[C@@H](O)[C@H]2O)cc1 [Baohuoside I] | 37.1 ± 0.59 |
| CC(C)=CCc1cc2c(cc1O)O[C@H](c1ccc(O)cc1)CC2=O [Bavachin] | 21.7 ± 1.75 |
| CC(C)(C)[C@]1(O)C[C@@H]2OC(=O)C[C@@]23C(=O)O[C@@H]2OC(=O)[C@H](O)[C@]213 [Bilobalide] | 17.4 ± 1.76 |
| COc1ccc(-c2coc3cc(O)cc(O)c3c2=O)cc1 [Biochanin A] | 28.2 ± 1.38 |
| Oc1ccc2c(c1)OC[C@]1(O)Cc3cc(O)c(O)cc3[C@H]21 [Brazilin] | 47.2 ± 2.57 |

| SMILES | inhibition at 64 µg/mL [%] |
| --- | --- |
| COC(=O)[C@@]12OC[C@]34[C@H]([C@@H](O)[C@@H]1O)[C@@]1(C)CC(=O)C(O)=C(C)[C@@H]1C[C@H]3OC(=O)[C@H](OC(C)=O)[C@@H]24 [Bruceine B] | 1.6 ± 2.71 |
| COc1ccc(-c2cc(=O)c3c(O)cc(O[C@@H]4O[C@H](CO[C@@H]5O[C@@H](C)[C@H](O)[C@@H](O)[C@H]5O)[C@@H](O)[C@H](O)[C@H]4O)cc3o2)cc1 [Buddleoside] | 46.2 ± 1.25 |
| COc1ccc(-c2coc3cc(O[C@@H]4O[C@H](CO)[C@@H](O)[C@H](O)[C@H]4O)ccc3c2=O)cc1O [Calycosin-7-glucoside] | 4.2 ± 0.84 |
| COc1ccc(-c2oc3cc(OC)c(OC)c(O)c3c(=O)c2OC)cc1O [Casticin] | 56.8 ± 1.22 |
| CCC1=C[C@@H]2CN3CCc4c([nH]c5ccccc45)[C@@](C(=O)OC)(C2)[C@@H]13 [Catharanthine] | 10.3 ± 1.62 |
| O=C(/C=C/c1ccc(O)c(O)c1)O[C@@H]1C[C@](O)(C(=O)O)C[C@@H](O)[C@H]1O [Chlorogenic acid] | 10.4 ± 1.12 |
| O=c1cc(-c2ccccc2)oc2cc(O)cc(O)c12 [Chrysin] | 49 ± 3.18 |
| COc1cc(-c2oc3cc(OC)c(OC)c(O)c3c(=O)c2OC)ccc1O [Chrysosplenetin] | 52.4 ± 0.36 |
| CC1(C)CCC2(CO)C(=C3C=CC4C5(C)CCC(OC6OC(COC7OC(CO)C(O)C(O)C7O)C(OC7OC(CO)C(O)C(O)C7O)C(O)C6O)CC5C(C)(CO)CC4(C)C3(C)CC2O)C1 (stereo not shown) [Clinodiside A] | 16 ± 2.78 |
| COc1cc(O)c2c(=O)c(O[C@@H]3O[C@H](CO)[C@@H](O)[C@H](O)[C@H]3O)c(-c3ccc(O[C@@H]4O[C@H](CO)[C@@H](O)[C@H](O)[C@H]4O)cc3)oc2c1 [Complanatuside] | 12.3 ± 0.47 |
| Nc1[nH]c(=O)nc2c1ncn2[C@@H]1O[C@H](CO)[C@@H](O)[C@H]1O [Crotonoside] | 28.1 ± 3.17 |
| O=C(/C=C/c1ccc(O)c(O)c1)O[C@H]1[C@H](O)C[C@](O)(C(=O)O)C[C@H]1O [Cryptochlorogenic acid] | 13.7 ± 3.15 |
| C[C@@H]1C(=O)O[C@H](C)[C@H]1C[C@@H](O)[C@](C)(O)[C@H]1CC[C@@]2(O)C3=CC(=O)[C@@H]4C[C@@H](O)[C@@H](O)C[C@]4(C)[C@H]3CC[C@]12C [Cyasterone] | 25.6 ± 2.65 |
| C/C=C/c1cc(OC)c2c(c1)C(C)C(c1ccc(O)c(OC)c1)O2 (stereo not shown) [Dehydrodiisoeugenol] | 5.3 ± 0.61 |
| COc1ccc([C@@H]2CC(=O)c3c(O)cc(O[C@@H]4O[C@H](CO[C@@H]5O[C@@H](C)[C@H](O)[C@@H](O)[C@H]5O)[C@@H](O)[C@H](O)[C@H]4O)cc3O2)cc1 [Didymin] | 31.2 ± 0.59 |
| COc1ccc(-c2cc(=O)c3c(O)cc(O)cc3o2)cc1O [Diosmetin] | 6.1 ± 1.68 |
| COc1ccc(-c2cc(=O)c3c(O)cc(O[C@@H]4O[C@H](CO[C@@H]5O[C@@H](C)[C@H](O)[C@@H](O)[C@H]5O)[C@@H](O)[C@H](O)[C@H]4O)cc3o2)cc1O [Diosmin] | 31.7 ± 0.92 |
| COc1ccc(-c2oc3c(CC=C(C)C)c(O[C@@H]4O[C@H](CO)[C@@H](O)[C@H](O)[C@H]4O)cc(O)c3c(=O)c2O[C@@H]2O[C@@H](C)[C@H](O)[C@@H](O[C@@H]3O[C@H](CO)[C@@H](O)[C@H](O)[C@H]3O)[C@H]2O)cc1 [Epimedin A1] | 26.7 ± 0.81 |
| COc1ccc(-c2oc3c(CC=C(C)C)c(O[C@@H]4O[C@H](CO)[C@@H](O)[C@H](O)[C@H]4O)cc(O)c3c(=O)c2O[C@@H]2O[C@@H](C)[C@H](O)[C@@H](O)[C@H]2O[C@@H]2OC[C@@H](O)[C@H](O)[C@H]2O)cc1 [Epimedin B] | 29.1 ± 2.01 |
| Cc1c(O)c(C)c2c(c1O)C(=O)C[C@@H](c1ccc(O)cc1)O2 [Farrerol] | 33.5 ± 0.73 |
| COc1ccc(/C=C/C(=O)c2c(O)cc(OC)cc2OC)cc1 [Flavokawain A] | 2.6 ± 1.17 |

| SMILES | inhibition at 64 µg/mL [%] |
| --- | --- |
| COc1cc2ccc(=O)oc2c(O)c1O [Fraxetin] | 50.3 ± 4.62 |
| O=c1c(-c2ccc(O)cc2)coc2cc(O)cc(O)c12 [Genistein] | 33.5 ± 0.65 |
| O=c1c(-c2ccc(O)cc2)coc2cc(O[C@@H]3O[C@H](CO)[C@@H](O)[C@H](O)[C@H]3O)cc(O)c12 [Genistin] | 22.1 ± 0.63 |
| COc1cc(O)c2c(=O)cc(-c3ccc(O)cc3)oc2c1 [Genkwanin] | 13.7 ± 0.58 |
| COc1cc2c(=O)c(-c3ccc(O)cc3)coc2cc1O[C@@H]1O[C@H](CO)[C@@H](O)[C@H](O)[C@H]1O [Glycitin] | 18.5 ± 1.26 |
| O=Cc1ccc(O[C@@H]2O[C@H](CO)[C@@H](O)[C@@H](O)[C@H]2O)cc1 [Helicid] | 13.9 ± 3.22 |
| Oc1cc2c(cc1O)[C@@H]1c3ccc(O)c(O)c3OC[C@]1(O)C2 [Hematoxylin] | 23.9 ± 2.69 |
| O=C1C([C@@H]2O[C@H](CO)[C@@H](O)[C@H](O)[C@H]2O)=C(O)/C(=C(O)/C=C/c2ccc(O)cc2)C(=O)C1(O)[C@@H]1O[C@H](CO)[C@@H](O)[C@H](O)[C@H]1O (stereo partly shown) [Hydroxysafflor yellow A] | 52.4 ± 4.23 |
| COc1ccc(-c2oc3c(CC=C(C)C)c(O[C@@H]4O[C@H](CO)[C@@H](O)[C@H](O)[C@H]4O)cc(O)c3c(=O)c2O[C@@H]2O[C@@H](C)[C@H](O)[C@@H](O)[C@H]2O)cc1 [Icariin] | 34.6 ± 1.54 |
| COc1cc(-c2coc3cc(O[C@@H]4O[C@H](CO)[C@@H](O)[C@H](O)[C@H]4O)c(OC)c(O)c3c2=O)cc(O)c1OC [Iridin] | 14.2 ± 1.39 |
| O=c1c(-c2ccccc2)coc2ccccc12 [Isoflavone] | 20.1 ± 0.73 |
| O=c1cc(-c2ccc(O)c(O)c2)oc2cc(O)c([C@@H]3O[C@H](CO)[C@@H](O)[C@H](O)[C@H]3O)c(O)c12 [Isoorientin] | 50.2 ± 1.58 |
| COc1ccc(C(=O)O)cc1O [Isovanillic acid] | 13.7 ± 2.43 |
| O=c1c(O)c(-c2ccc(O)cc2)oc2cc(O)cc(O)c12 [Kaempferol] | 44 ± 2.75 |
| C[C@@H]1O[C@@H](OC[C@H]2O[C@@H](Oc3cc(O)c4c(=O)cc(-c5ccc(O)cc5)oc4c3)[C@H](O[C@@H]3O[C@@H](C)[C@H](O)[C@@H](O)[C@H]3O)[C@@H](O)[C@@H]2O)[C@H](O)[C@H](O)[C@H]1O [Ligustroflavone] | 26.6 ± 1.16 |
| O=C1C[C@@H](c2ccc(O[C@@H]3O[C@H](CO)[C@@H](O)[C@H](O)[C@H]3O)cc2)Oc2cc(O)ccc21 [Liquiritin] | 3.2 ± 0.97 |
| COC(=O)C1=CO[C@@H](O[C@@H]2O[C@H](CO)[C@@H](O)[C@H](O)[C@H]2O)[C@@H]2[C@@H](C)[C@@H](O)C[C@H]12 [Loganin] | 14.7 ± 3.56 |
| COc1ccc(CCC(=O)c2ccc(O)cc2)c(OC)c1 [Loureirin A] | 56.5 ± 2.47 |
| COc1cc(OC)c(CCC(=O)c2ccc(O)cc2)c(OC)c1 [Loureirin B] | 29.8 ± 2.24 |

Reference: publication PMC9045277, “Quercetin Reduces the Virulence of S. aureus by Targeting ClpP to Protect Mice from MRSA-Induced Lethal Pneumonia” (Microbiology Spectrum, 2022)
